Experimental data reported in patent US11427556B2, “Urea derivatives as inhibitors of ASK1” (Hepagene Therapeutics (HK) Limited, priority 2017, dated 2022).

target: T1, Recombinant human ASK1 kinase (Homo sapiens, UniProt Q99683); assay: ASK1 kinase HTRF assay (HTRF KinEASE-STK, phosphorylation of biotinylated peptide substrate); type: biochemical; conditions: not given
T1 construct: purchased Invitrogen Inc
T1 sequence (Q99683 1-1374): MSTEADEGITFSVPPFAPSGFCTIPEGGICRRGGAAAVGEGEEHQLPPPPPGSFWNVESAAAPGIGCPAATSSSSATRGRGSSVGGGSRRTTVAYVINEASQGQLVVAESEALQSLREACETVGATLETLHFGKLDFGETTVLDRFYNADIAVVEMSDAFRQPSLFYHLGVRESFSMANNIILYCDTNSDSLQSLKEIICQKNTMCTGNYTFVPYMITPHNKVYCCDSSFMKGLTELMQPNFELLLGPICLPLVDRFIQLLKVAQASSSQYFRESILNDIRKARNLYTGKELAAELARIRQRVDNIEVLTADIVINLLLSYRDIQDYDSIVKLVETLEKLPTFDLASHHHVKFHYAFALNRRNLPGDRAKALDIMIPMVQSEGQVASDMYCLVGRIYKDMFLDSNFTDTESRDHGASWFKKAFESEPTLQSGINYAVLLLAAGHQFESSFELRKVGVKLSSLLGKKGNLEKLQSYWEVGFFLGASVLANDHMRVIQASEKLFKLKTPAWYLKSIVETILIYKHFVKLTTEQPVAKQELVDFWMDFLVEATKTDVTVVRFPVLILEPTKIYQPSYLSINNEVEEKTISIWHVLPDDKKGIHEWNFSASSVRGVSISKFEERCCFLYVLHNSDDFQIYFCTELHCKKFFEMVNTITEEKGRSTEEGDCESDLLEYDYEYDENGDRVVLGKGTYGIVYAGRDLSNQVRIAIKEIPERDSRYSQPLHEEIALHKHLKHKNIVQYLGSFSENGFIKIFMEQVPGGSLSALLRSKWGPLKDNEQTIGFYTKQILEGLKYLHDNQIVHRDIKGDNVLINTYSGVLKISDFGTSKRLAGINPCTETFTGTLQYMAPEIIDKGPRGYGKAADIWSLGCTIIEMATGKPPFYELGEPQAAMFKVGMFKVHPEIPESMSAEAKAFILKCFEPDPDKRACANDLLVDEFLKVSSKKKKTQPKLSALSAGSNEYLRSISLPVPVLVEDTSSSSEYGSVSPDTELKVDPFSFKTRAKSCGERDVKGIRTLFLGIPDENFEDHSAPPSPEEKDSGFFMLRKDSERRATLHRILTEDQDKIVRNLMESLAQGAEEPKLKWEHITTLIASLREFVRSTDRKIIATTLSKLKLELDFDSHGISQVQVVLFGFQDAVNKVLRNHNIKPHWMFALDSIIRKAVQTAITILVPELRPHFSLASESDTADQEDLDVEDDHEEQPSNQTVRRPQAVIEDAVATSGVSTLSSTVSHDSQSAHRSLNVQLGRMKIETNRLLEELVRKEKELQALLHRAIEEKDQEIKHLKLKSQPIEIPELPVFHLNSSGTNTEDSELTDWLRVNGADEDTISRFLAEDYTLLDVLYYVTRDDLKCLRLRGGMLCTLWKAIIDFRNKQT
Experimental: Reagents: Recombinant human ASK1 kinase was from Invitrogen Inc. HTRF KinEASETM-STK S3 kit was obtained from Cisbio (Bedford, Mass.). All other reagents were of the highest grade commercially available.
Assay: The assay measures the phosphorylation level of a biotinylatd peptide substrate by the ASK1 kinase using HTRF detection. ASK1 kinase assay is based on HTRF KinEASETM-STK manual from Cisbio. Test compound, 1 uM STK-substrate-biotin, 3 nM of ASK1 kinase are incubated with 1*Kinase buffer with 5 mM MgCl2 and 1 mM DTT.

`CC(C)n1cnnc1-c1cccc(NC(=O)Nc2cc(C(=O)N3CCCC3)ccn2)n1` [Compound I-145] and `CC(C)n1cnnc1-c1cccc(NC(=O)Nc2cc(C(=O)N3CCCCC3)ccn2)n1` [Compound I-109] cannot be ordered by EC50: less than 50 nM for the first, less than 50 nM for the second.

Work on `CC(C)n1cnnc1-c1cccc(NC(=O)Nc2nccc3ccccc23)n1` [Compound I-066] yielded an EC50 of less than 50 nM.

same assay, conditions: 3 nM ASK1 kinase, 1 uM STK-substrate-biotin, HTRF detection; read-out: EC50

First: Cc1ccc(-n2ccn(-c3cccc(-c4nncn4C(C)C)n3)c2=O)c(F)c1 [III-01, 3-(2-Fluoro-4-methylphenyl)-1-(6-(4-isopropyl-4H-1,2,4-triazol-3-yl)pyridin-2-yl)-1H-imidazol-2(3H)-one]
Second: CC(C)n1cnnc1-c1cccc(-n2ccn(-c3ccc(-c4ccccc4)cn3)c2=O)n1 [III-06]
The EC50 of the first is higher: 50 to 500 nM for the first, less than 50 nM for the second.

`C[C@H](CO)n1cnnc1-c1cccc(NC(=O)Nc2cc(C(=O)N3CCC(O)CC3)ccn2)n1` [Compound I-137] and `C[C@@H]1CCCCN1C(=O)c1ccnc(NC(=O)Nc2cccc(-c3nncn3[C@H](C)CO)n2)c1` [Compound I-121] cannot be ordered by EC50: less than 50 nM for the first, less than 50 nM for the second.

`CC(C)n1cnnc1-c1cccc(NC(=O)Nc2ncccc2OCc2ccccc2)n1` [Compound I-070] and `COc1cccnc1NC(=O)Nc1cccc(-c2nncn2C(C)C)n1` [Compound I-055] cannot be ordered by EC50: less than 50 nM for the first, less than 50 nM for the second.

`C[C@H](CO)n1cnnc1-c1cccc(N2CCN(c3ccc(C(=O)N4CCNCC4)cn3)C2=O)n1` [Compound V-27] and `C[C@H](CO)n1cnnc1-c1cccc(N2CCN(c3ccc(C(=O)N4CCOCC4)cn3)C2=O)n1` [Compound V-26] cannot be ordered by EC50: less than 50 nM for the first, less than 50 nM for the second.

`Cc1cccnc1NC(=O)Nc1cccc(-c2nncn2C(C)C)n1` [Compound I-039] and `CC(C)n1cnnc1-c1cccc(NC(=O)Nc2ncccc2Cl)n1` [Compound I-180] cannot be ordered by EC50: less than 50 nM for the first, less than 50 nM for the second.

Compared with `Cc1ccc(NC(=O)Nc2cccc(-c3nncn3[C@@H](C)CO)n2)nc1` [Compound I-037], `Cc1ccc(NC(=O)Nc2cccc(-c3nncn3C(C)CO)n2)nc1` (centres unmarked) [Compound I-035] is lower in EC50: 50 to 500 nM for the first, less than 50 nM for the second. The second is the more potent here.

`CC(C)n1cnnc1-c1cccc(NC(=O)Nc2cc(-c3ccc(C4CC4)cc3)ccn2)n1` [Compound I-080] and `CC(C)n1cnnc1-c1cccc(NC(=O)Nc2cc(-c3ccc(C4CC4)nc3)ccn2)n1` [Compound I-081] cannot be ordered by EC50: less than 50 nM for the first, less than 50 nM for the second.

First: C[C@H](CO)n1cnnc1-c1cccc(N2CCN(c3ccc(N4CCOCC4)cn3)C2=O)n1 [Compound V-18]
Second: CC(=O)OC[C@@H](C)n1cnnc1-c1cccc(N2CCN(c3ccc(N4CCOCC4)cn3)C2=O)n1 [Compound V-19]
The EC50 of the first is lower: less than 50 nM for the first, 50 to 500 nM for the second.

`CC(C)n1cnnc1-c1cccc(NC(=O)Nc2cc(C(=O)N3CCN(C)CC3)ccn2)n1` [Compound I-141] and `CC(C)n1cnnc1-c1cccc(NC(=O)Nc2cc(C(=O)N3CCCC[C@H]3C)ccn2)n1` [Compound I-120] cannot be ordered by EC50: less than 50 nM for the first, less than 50 nM for the second.

Compared with `C[C@H](CO)n1cnnc1-c1cccc(NC(=O)Nc2ccccn2)n1` [Compound I-026], `C[C@@H](CO)n1cnnc1-c1cccc(NC(=O)Nc2ccccn2)n1` [Compound I-027] is higher in EC50: less than 50 nM for the first, 50 to 500 nM for the second.

`CC(C)n1cnnc1-c1cccc(NC(=O)Nc2ncco2)n1` [Compound I-215] and `CC(C)n1cnnc1-c1cccc(NC(=O)Nc2cc(F)ccn2)n1` [Compound I-187] cannot be ordered by EC50: less than 50 nM for the first, less than 50 nM for the second.

`CC(C)n1cnnc1-c1cccc(N2CCN(c3ccc(-c4ccccc4)cn3)C2=O)n1` [Compound V-05] and `CC(C)n1cnnc1-c1cccc(NC(=O)Nc2ccc(-c3ccccc3)cn2)n1` [Compound I-076] cannot be ordered by EC50: less than 50 nM for the first, less than 50 nM for the second.

`CC(C)n1cnnc1-c1cccc(NC(=O)Nc2cc(N3CCOCC3)ccn2)n1` [Compound I-094] and `CC(C)n1cnnc1-c1cccc(NC(=O)Nc2cc(N3CCNCC3)ccn2)n1` [Compound I-095, 1-(6-(4-Isopropyl-4H-1,2,4-triazol-3-yl)pyridin-2-yl)-3-(4-(piperazin-1-yl)pyridin-2-yl)urea] cannot be ordered by EC50: less than 50 nM for the first, less than 50 nM for the second.

`CC(C)n1cnnc1-c1cccc(NC(=O)Nc2cc(C(=O)N3CCCc4ccccc43)ccn2)n1` [Compound I-123] and `CC(C)n1cnnc1-c1cccc(NC(=O)Nc2cc(C(=O)N3CCc4ccccc4C3)ccn2)n1` [Compound I-006, 1-(6-(4-Isopropyl-4H-1,2,4-triazol-3-yl)pyridin-2-yl)-3-(4-(1,2,3,4-tetrahydroisoquinoline-2-carbonyl)pyridin-2-yl)urea] cannot be ordered by EC50: less than 50 nM for the first, less than 50 nM for the second.

First: Cc1ccc(NC(=O)Nc2cccc(-c3nncn3C3CC3)n2)nc1 [Compound I-034]
Second: CC(C)n1cnnc1-c1cccc(NC(=O)Nc2ccc(Cl)cn2)n1 [Compound I-184]
The EC50 of the first is higher: 50 to 500 nM for the first, less than 50 nM for the second. The second is the more potent here.

`CC(C)n1cnnc1-c1cccc(NC(=O)Nc2cc(-c3ccncc3)ccn2)n1` [Compound I-087] and `CC(C)n1cnnc1-c1cccc(NC(=O)Nc2cc(C(=O)Nc3ccncc3)ccn2)n1` [Compound I-163] cannot be ordered by EC50: less than 50 nM for the first, less than 50 nM for the second.

`CC(C)n1cnnc1-c1cccc(NC(=O)Nc2cc(C(=O)Nc3cccnc3)ccn2)n1` [Compound I-162] and `CC(C)n1cnnc1-c1cccc(NC(=O)Nc2cc(C(=O)Nc3ccc(F)cc3)ccn2)n1` [Compound I-158] cannot be ordered by EC50: less than 50 nM for the first, less than 50 nM for the second.

`COc1ccc(NC(=O)Nc2cccc(-c3nncn3C(C)C)n2)nc1` [Compound I-051] and `CC(C)n1cnnc1-c1cccc(NC(=O)Nc2ccc(N)cn2)n1` [Compound I-209] cannot be ordered by EC50: less than 50 nM for the first, less than 50 nM for the second.

`CC(C)n1cnnc1-c1cccc(NC(=O)Nc2ncccn2)n1` [Compound I-212] and `CC(C)n1cnnc1-c1cccc(NC(=O)Nc2ncccc2Br)n1` [Compound I-176] cannot be ordered by EC50: less than 50 nM for the first, less than 50 nM for the second.

`C[C@H](CO)n1cnnc1-c1cccc(NC(=O)Nc2cc(C(=O)N3CCc4ccccc4C3)ccn2)n1` [Compound I-122] and `C[C@H](CO)n1cnnc1-c1cccc(NC(=O)Nc2cc(-c3ccccc3)ccn2)n1` [Compound I-078] cannot be ordered by EC50: less than 50 nM for the first, less than 50 nM for the second.

`CC(C)n1cnnc1-c1cccc(NC(=O)Nc2ccc(C(F)(F)F)cn2)n1` [Compound I-195] and `Cc1cccc(NC(=O)Nc2cccc(-c3nncn3C(C)C)n2)n1` [Compound I-040] cannot be ordered by EC50: less than 50 nM for the first, less than 50 nM for the second.

`C[C@H](CO)n1cnnc1-c1cccc(NC(=O)Nc2nc3ccccc3o2)n1` [Compound I-217] and `C[C@H](CO)n1cnnc1-c1cccc(NC(=O)Nc2cc3ccccc3cn2)n1` [Compound I-058] cannot be ordered by EC50: less than 50 nM for the first, less than 50 nM for the second.

`Cc1ccc(NC(=O)Nc2cccc(-c3nncn3C(C)C)n2)c(F)c1` [Compound I-018] and `Cc1ccc(NC(=O)Nc2cccc(-c3nncn3C(C)C)n2)cn1` [Compound I-041] fall in the same range of EC50: 50 to 500 nM for the first, 50 to 500 nM for the second.

First: CC(C)n1cnnc1-c1cccc(NC(=O)Nc2ncccc2C(=O)O)n1 [Compound I-201]
Second: CC(C)n1cnnc1-c1cccc(NC(=O)Nc2ncccc2-c2cccnc2)n1 [Compound I-082]
The EC50 of the first is higher: 50 to 500 nM for the first, less than 50 nM for the second.

`CC(C)n1cnnc1-c1cccc(NC(=O)Nc2ccc(-c3ccccn3)cn2)n1` [Compound I-088] and `CC(C)n1cnnc1-c1cccc(NC(=O)Nc2cc(C#N)ccn2)n1` [Compound I-198] cannot be ordered by EC50: less than 50 nM for the first, less than 50 nM for the second.

`CC1CN(c2ccc(N3CCN(c4cccc(-c5nncn5C(C)C)n4)C3=O)nc2)CCO1` (centres unmarked) [Compound V-17] and `CC(C)n1cnnc1-c1cccc(N2CCN(c3ccc(N4CCOCC4)cc3)C2=O)n1` [Compound V-11] cannot be ordered by EC50: less than 50 nM for the first, less than 50 nM for the second.

In the case of `CCN1CCN(c2ccnc(NC(=O)Nc3cccc(-c4nncn4C(C)C)n3)c2)CC1` [Compound I-099], the EC50 is reported as less than 50 nM.
